Assay results taken from patent US10167261B2, “2-oxo-3,4-dihydroquinolin-6-yl sulphonamide CPDS and their use as plant growth regulators” (THE REGENTS OF THE UNIVERSITY OF CALIFORNIA, priority 2014, dated 2019).

Experiments:
PYR1-HAB1 = PYR1-HAB1 (Arabidopsis thaliana (Mouse-ear cress), UniProt O49686); test: PP2C activity assay, PYR1-HAB1; assay type: biochemical; conditions: 100 nM PP2C, 200 nM PYR/PYL protein, 4-nitrophenyl phosphate substrate; read-out: IC50 of inhibition of PYR1-HAB1
Source text: (§1) The protein HAB1, a type 2 protein phosphatase (PP2C), is inhibited by PYR/PYL proteins in dependence of abscisic acid or other receptor agonists. The potency of a receptor agonists correlates with the level of inhibition of the PP2C, and therefore the IC50 (PYR1-HAB1) can be used to compare the relative activity of different chemical analogues. Since inhibition of PP2C correlates to inhibition of seed-germination and increase in plant water-use efficiency, it serves as a powerful tool to quantify biological potential of a chemical acting as an analogue of abscisic acid.
(§2) HAB1 and PYL proteins were expressed and purified as described in Park et al. ((2009) Science 324(5930):1068-1071), with minor modifications. To obtain GST-HAB1, the HAB1 cDNA was cloned into pGex-2T. Expression was conducted in BL21[DE3]pLysS host cells. Transformed cells were pre-cultured overnight, transferred to LB medium and cultured at 30° C. to culture A600 of ˜0.5.
(§3) The culture was then cooled on ice and MnCl2 added to 4 mM and IPTG added to 0.3 mM. After 16 hours incubation at 15° C., cells were harvested and recombinant proteins were purified on glutathione agarose as described in Park et al. To obtain 6×His-PYL receptor fusion proteins, expression constructs previously described by Okamoto et al. 2013, (PNAS 110(29): 12132-12137) were used. ABA receptors were expressed and purified as described above.
(§4) For the values shown in Table B5, PP2C activity assays using recombinant receptors and PP2Cs were carried out as follows: purified proteins were pre-incubated in 160 μl assay buffer containing 100 mM Tris-HCl-pH7.9, 100 mM NaCl, 3 μg bovine serum albumin, 0.1% 2-mercaptoethanol, 1 mM MnCl2 with ABA or agonists (compounds of the present invention) for 30 minutes at room temperature. Reactions were started by adding 40 μL of a reaction solution containing 25 mM 4-nitrophenyl phosphate in assay buffer after which absorbance measurements were immediately collected using a 405 nm on Wallac plate reader. Reactions contained 100 nM PP2C and 200 nM PYR/PYL proteins. […] For inferring IC50 values, calculations from receptor/PP2C assays containing different concentrations (ranging from 1 μM to 4 nM) were. The obtained dose response data was fit to a log (inhibitor) versus response-(variable slope) model using non-linear regression to infer the IC50s, using Graph Pad Prism 6.0.

[1] = test system: corn plants (variety NK OCTET); test: Water use (WU) of corn plants after foliar spray; assay type: in vivo; conditions: foliar spray at 500 μM, vs negative control
Method: Compounds were tested for their effect on reducing plant water use as follows. The compounds were applied by foliar spray to 12 day old corn plants (variety NK OCTET) grown in controlled environment plant growth chambers. All compounds were applied using an emulsifiable concentrate (EC) formulation that was diluted to the desired concentrations with water containing 0.4% of the adjuvant rape seed methyl ester. Plant water use during the day was assessed by repeated weighing of the pots in which the plants were grown before and after application of the compounds at the indicated times (expressed in days after application (DAA)). The water use data before application was used to correct any differences in water use arising due to non-treatment effects (e.g. due to differences in plant size). The untransformed water use values were subjected to an analysis of covariance, fitting the effect of treatment and using the baseline water use 1 day before application as a covariate. Application of the chemicals (0 DAA) takes place approximately between 8 to 9:30 a.m. WU is measured within day time (chamber light is on 6:00 to 20:00) at these timepoints: 0 DAA AM (10:30-12:50) and 0 DAA PM (14:00-19:50), 1 DAA AM (7:30-12:50) and 1 DAA PM (14:00-19:50) and 2 DAA AM (7:30-12:50). The cumulative total WU (0-2 DAA) is calculated by summing the WU data mentioned above.

[2] = test system: corn plants (variety NK OCTET); test: Water use (WU) of corn plants after foliar spray; assay type: in vivo; conditions: foliar spray at 500 μM, vs negative control; remark: listed apart in the source
PYL2-HAB1 = PYL2-HAB1 (Arabidopsis thaliana (Mouse-ear cress), UniProt O80992); test: PP2C activity assay, PYL2-HAB1; assay type: biochemical; conditions: 100 nM PP2C, 200 nM PYR/PYL protein, 4-nitrophenyl phosphate substrate; read-out: IC50 of inhibition of PYL2-HAB1
PYL2-HAB1, sequence (O80992 whole entry, looked up): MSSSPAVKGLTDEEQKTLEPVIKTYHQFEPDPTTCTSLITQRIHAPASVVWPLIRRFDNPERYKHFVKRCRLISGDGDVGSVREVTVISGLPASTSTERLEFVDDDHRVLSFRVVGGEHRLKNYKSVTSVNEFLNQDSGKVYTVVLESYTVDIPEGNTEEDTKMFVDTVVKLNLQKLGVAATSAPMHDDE
PYL2-HAB1, sequence (Q9CAJ0 whole entry partner, looked up): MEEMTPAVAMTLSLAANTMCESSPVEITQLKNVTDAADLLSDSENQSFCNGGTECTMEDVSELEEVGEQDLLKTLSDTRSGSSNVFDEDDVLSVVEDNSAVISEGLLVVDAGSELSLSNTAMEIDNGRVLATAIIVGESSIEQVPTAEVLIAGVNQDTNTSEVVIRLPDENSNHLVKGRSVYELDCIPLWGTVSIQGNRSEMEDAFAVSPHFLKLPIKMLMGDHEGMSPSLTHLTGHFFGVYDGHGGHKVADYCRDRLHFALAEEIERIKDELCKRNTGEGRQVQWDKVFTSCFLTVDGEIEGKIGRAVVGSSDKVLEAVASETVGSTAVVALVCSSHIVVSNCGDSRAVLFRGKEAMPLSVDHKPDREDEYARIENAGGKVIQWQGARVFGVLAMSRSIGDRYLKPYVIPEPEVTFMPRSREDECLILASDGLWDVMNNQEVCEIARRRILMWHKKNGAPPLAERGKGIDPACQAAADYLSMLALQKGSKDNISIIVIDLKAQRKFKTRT
Source text: as §1, §2, §3, §4

[3] = test system: soybean plants (variety S20-G7); test: Water use (WU) of soybean plants after foliar spray; assay type: in vivo; conditions: repeated experiment (Table B2), rate not given
Method: Chemicals were tested for their effect on reducing plant water use (WU) after being applied by foliar sprays onto soybean plants (variety S20-G7)—grown in controlled environment plant growth chambers. All chemicals were applied using an emulsifiable concentrate (EC) formulation that was diluted with water containing additional surfactant (EXTRAVON 1 g/20 L) to the indicated concentrations. Plant WU was assessed by multiple pot weighing processes before and after application of the chemicals at the indicated times (expressed in days after application (DAA)). The WU data before application was used to correct for differences in water use due to non-treatment effects (e.g. due to differences in plant size). The results are expressed compared to negative control treatment (water with EXTRAVON 1 g/20 L).
Application of the chemicals (0 DAA) takes place approximately between 8 to 9:30 a.m. […] The cumulative total WU (0-2 DAA) is calculated by summing the WU data mentioned above.

Arabidopsis seeds = test: Arabidopsis germination inhibition analysis; assay type: in vivo; conditions: assessed after 3 days at 22° C. in the dark
Method: To analyse the effect of compounds on inhibition of germination, Arabidopsis seeds after-ripened for about 4 weeks were surface-sterilized with a solution containing 5% NaClO and 0.05% Tween-20 for 10 minutes, and rinsed with water four times. Sterilized seeds were suspended with 0.1% agar and sowed on 0.8% solidified agar medium containing ½ Murashige and Skoog (MS) salts (Sigma-Aldrich) in the presence of the relevant treatment, stored at 4° C. for 4 days, and then transferred to 22° C. under the dark conditions. Germination was assessed after 3 days.

PYR1-HAB1, sequence (O49686 whole entry, looked up): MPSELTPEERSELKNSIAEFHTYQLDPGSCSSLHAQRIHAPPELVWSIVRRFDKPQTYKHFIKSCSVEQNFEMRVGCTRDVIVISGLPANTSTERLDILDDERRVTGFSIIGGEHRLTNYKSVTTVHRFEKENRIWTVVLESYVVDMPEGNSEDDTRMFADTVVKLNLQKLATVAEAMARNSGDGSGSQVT
PYR1-HAB1, sequence (Q9CAJ0 whole entry partner, looked up): as the sequence (Q9CAJ0 whole entry partner, looked up) above

Compound | IC50 (PYR1-HAB1) [nM] | Total % WU 0 to 2 DAA ([1]; cumulative) [%] | % WU 0 DAA AM [1] [%] | % WU 0 DAA PM [1] [%] | % WU 1 DAA AM [1] [%] | % WU 1 DAA PM [1] [%] | % WU 2 DAA AM [1] [%] | % WU 2 DAA PM [2] [%] | IC50 (PYL2-HAB1) [nM] | % WU 2 DAA PM [3] [%] | Total % WU 0 to 2 DAA ([3]; cumulative) [%] | % germination at 1 μM (Arabidopsis seeds) [%] | % germination at 5 μM (Arabidopsis seeds) [%]
CCN1C(=O)CC(C)c2cc(NS(=O)(=O)Cc3ccc(C4CC4)cc3)cc(F)c21 (stereo not drawn) [Compound 1.220, 1-(4-cyclopropylphenyl)-N-(1-ethyl-8-fluoro-4-methyl-2-oxo-3,4-dihydroquinolin-6-yl)methanesulfonamide] | 71 | −17.8 | −32.6 | −35.1 | −18.2 | −14.1 | −8.7 | −9 | 16 | −44.6 | −50.5 | – | –
CCCN1C(=O)CCc2cc(NS(=O)(=O)Cc3ccc(C)cc3)ccc21 [drawing 28, reference compound] | – | – | – | – | – | – | – | – | – | – | – | 46 | 0
CCCN1C(=O)CCc2cc(NS(=O)(=O)Cc3ccc(C4CC4)cc3)ccc21 [drawing 29] | – | – | – | – | – | – | – | – | – | – | – | 42 | 0
